Consider 2 compounds from ChEMBL document CHEMBL4507291 (2021).

In test [1] the test system is Tyrosine-protein kinase ABL1 (Homo sapiens), P00519 [M351T].
Test [2] addresses BMP-2-inducible protein kinase (Homo sapiens) (UniProt Q9NSY1).
Test [3] deals with Casein kinase I isoform alpha (Homo sapiens) (UniProt P48729).
Test [4] has as its target Tyrosine-protein kinase Fer (Homo sapiens) (UniProt P16591).
The target in test [5] is Rhodopsin kinase GRK1 (Homo sapiens) (UniProt Q15835).
Test [6] concerns the target T1, Inhibitor of nuclear factor kappa-B kinase subunit alpha (Homo sapiens) (UniProt O15111).
T1 sequence (whole entry): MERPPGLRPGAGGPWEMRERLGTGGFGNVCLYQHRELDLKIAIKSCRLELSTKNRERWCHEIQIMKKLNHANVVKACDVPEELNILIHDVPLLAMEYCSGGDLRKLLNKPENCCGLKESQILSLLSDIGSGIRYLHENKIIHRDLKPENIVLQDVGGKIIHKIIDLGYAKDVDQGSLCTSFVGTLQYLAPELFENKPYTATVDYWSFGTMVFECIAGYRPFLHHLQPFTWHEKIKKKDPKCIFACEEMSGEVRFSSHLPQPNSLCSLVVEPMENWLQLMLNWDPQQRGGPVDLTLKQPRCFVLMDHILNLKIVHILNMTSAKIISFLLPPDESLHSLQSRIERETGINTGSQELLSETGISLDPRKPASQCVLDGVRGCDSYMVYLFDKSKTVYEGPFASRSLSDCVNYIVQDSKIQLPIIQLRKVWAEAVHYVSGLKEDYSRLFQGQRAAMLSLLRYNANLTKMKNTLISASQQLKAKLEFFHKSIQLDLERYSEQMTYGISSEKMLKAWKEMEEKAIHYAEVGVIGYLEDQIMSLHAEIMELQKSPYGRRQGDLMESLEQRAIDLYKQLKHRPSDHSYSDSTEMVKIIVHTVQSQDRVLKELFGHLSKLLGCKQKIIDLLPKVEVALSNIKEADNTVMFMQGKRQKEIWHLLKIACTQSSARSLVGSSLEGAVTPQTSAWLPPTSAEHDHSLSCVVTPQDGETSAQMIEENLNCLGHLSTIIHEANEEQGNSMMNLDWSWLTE

For test [7], the target named is T2, Serine/threonine-protein kinase 3 (Homo sapiens) (UniProt Q13188).
T2 sequence (whole entry): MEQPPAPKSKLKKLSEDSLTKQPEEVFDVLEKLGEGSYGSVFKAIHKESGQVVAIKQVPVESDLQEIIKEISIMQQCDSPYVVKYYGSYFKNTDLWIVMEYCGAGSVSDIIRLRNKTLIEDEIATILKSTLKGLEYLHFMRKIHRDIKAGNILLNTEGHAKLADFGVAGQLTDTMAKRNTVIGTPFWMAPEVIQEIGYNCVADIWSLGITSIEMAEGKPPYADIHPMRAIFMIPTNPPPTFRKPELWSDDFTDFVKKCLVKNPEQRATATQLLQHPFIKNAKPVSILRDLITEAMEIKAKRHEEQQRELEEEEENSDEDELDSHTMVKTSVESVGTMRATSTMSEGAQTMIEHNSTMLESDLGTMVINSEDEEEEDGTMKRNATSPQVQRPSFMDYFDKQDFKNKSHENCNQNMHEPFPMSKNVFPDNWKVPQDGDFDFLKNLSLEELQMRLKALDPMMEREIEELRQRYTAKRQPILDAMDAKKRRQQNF

Test [8] deals with Phosphatidylinositol 4,5-bisphosphate 3-kinase catalytic subunit alpha isoform (Homo sapiens), P42336 [E545K].
For test [9], the target named is T3, Serine/threonine-protein kinase Sgk1 (Homo sapiens) (UniProt O00141).
T3 sequence (whole entry): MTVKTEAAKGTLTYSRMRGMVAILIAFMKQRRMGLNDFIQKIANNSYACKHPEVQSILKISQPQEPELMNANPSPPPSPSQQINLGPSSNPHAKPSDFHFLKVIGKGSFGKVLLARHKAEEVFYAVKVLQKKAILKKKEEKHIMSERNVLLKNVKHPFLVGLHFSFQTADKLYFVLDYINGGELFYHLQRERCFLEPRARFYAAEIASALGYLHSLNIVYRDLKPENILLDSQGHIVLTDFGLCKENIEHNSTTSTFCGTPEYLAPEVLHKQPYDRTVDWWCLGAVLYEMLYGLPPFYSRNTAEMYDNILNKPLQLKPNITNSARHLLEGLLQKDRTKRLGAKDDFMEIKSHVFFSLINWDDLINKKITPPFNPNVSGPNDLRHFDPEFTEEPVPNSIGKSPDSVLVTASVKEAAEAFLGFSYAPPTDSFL

The target of test [10] is Serine/threonine-protein kinase TAO1 (Homo sapiens) (UniProt Q7L7X3).
The target in test [11] is 5-hydroxytryptamine receptor 5A (Homo sapiens) (UniProt P47898). The following applies: Compound concentration 10.0 uM.
Test [12] has as its target T4, Muscarinic acetylcholine receptor M5 (Homo sapiens) (UniProt P08912).
T4 sequence (whole entry): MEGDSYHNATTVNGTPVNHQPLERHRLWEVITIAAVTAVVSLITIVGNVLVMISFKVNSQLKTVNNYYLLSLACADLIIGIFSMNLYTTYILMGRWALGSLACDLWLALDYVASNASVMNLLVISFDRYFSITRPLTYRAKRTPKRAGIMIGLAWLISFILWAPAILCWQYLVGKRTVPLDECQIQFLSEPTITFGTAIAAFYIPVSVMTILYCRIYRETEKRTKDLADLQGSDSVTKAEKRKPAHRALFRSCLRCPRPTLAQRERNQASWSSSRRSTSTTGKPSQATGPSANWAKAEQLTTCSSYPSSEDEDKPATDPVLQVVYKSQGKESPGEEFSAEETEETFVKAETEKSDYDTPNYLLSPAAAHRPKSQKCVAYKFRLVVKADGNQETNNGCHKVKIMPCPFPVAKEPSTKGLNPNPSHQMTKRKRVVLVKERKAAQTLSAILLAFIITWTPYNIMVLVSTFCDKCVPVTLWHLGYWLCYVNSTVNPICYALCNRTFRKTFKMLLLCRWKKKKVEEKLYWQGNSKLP
The settings on record: Compound concentration 10.0 uM.

Where [13] appears, read: Compound concentration 1000.0 nM.
[14] abbreviates: Compound concentration 100.0 nM.

Chain of Tyrosine-protein kinase Fer (Homo sapiens) (P16591 whole entry, looked up): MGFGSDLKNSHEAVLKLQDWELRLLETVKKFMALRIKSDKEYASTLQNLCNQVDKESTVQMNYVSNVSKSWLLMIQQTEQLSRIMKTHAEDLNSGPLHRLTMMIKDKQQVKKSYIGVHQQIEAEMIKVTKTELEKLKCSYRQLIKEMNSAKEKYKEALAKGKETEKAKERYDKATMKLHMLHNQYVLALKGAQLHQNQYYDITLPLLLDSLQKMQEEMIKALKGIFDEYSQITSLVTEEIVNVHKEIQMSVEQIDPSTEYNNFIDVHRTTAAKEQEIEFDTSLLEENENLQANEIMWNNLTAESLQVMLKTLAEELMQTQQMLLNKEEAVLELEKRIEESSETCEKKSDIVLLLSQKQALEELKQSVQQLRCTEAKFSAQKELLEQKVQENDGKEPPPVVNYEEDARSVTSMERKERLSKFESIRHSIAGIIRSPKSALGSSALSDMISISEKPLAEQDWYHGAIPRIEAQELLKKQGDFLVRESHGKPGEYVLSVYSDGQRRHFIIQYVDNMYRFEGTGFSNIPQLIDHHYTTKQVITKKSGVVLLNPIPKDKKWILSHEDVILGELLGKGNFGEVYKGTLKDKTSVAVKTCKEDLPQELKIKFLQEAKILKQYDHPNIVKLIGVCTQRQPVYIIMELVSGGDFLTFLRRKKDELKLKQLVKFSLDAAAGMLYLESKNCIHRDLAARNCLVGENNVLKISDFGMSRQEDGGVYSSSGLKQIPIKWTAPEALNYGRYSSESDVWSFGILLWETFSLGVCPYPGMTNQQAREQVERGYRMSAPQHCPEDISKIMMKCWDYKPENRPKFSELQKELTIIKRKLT
Chain of Phosphatidylinositol 4,5-bisphosphate 3-kinase catalytic subunit alpha isoform (Homo sapiens), P42336 [E545K] (P42336 whole entry E545K, canonical isoform): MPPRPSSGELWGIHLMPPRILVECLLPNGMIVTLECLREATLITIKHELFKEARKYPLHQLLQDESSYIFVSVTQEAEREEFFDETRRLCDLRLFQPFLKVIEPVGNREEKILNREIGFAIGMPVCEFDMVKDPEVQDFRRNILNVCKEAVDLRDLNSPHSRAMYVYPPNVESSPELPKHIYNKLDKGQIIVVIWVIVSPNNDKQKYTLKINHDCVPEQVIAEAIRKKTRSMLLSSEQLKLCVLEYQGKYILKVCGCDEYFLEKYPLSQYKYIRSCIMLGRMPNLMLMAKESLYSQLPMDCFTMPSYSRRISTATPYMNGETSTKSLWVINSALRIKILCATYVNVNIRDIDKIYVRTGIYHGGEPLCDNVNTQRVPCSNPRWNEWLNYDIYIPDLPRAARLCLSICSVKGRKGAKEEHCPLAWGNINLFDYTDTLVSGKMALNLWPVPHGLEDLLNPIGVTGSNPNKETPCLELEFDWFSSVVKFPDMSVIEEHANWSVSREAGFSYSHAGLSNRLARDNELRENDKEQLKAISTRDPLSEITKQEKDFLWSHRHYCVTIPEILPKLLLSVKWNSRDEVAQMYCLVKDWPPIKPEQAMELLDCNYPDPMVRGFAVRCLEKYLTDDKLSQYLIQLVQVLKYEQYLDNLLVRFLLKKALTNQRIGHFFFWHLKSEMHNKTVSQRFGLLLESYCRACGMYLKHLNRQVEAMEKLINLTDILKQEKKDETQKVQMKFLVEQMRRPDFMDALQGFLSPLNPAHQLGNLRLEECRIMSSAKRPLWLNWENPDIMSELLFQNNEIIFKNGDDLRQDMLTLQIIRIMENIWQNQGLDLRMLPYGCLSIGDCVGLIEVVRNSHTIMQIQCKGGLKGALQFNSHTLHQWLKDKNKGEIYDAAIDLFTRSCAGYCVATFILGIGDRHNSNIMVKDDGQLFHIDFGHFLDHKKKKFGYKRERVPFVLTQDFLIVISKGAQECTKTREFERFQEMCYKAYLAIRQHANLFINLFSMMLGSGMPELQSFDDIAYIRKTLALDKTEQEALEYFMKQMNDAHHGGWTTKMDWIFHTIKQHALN
Chain of 5-hydroxytryptamine receptor 5A (Homo sapiens) (P47898 whole entry): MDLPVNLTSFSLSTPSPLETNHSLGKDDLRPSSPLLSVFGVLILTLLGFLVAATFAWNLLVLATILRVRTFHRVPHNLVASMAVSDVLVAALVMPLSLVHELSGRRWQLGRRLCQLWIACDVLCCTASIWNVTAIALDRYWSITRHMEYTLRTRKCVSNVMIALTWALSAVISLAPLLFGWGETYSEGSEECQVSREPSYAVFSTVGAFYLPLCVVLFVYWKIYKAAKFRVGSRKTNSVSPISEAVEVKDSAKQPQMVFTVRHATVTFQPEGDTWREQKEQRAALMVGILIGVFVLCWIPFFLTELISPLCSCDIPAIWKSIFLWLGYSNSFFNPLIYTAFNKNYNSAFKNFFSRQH
Chain of Rhodopsin kinase GRK1 (Homo sapiens) (Q15835 whole entry): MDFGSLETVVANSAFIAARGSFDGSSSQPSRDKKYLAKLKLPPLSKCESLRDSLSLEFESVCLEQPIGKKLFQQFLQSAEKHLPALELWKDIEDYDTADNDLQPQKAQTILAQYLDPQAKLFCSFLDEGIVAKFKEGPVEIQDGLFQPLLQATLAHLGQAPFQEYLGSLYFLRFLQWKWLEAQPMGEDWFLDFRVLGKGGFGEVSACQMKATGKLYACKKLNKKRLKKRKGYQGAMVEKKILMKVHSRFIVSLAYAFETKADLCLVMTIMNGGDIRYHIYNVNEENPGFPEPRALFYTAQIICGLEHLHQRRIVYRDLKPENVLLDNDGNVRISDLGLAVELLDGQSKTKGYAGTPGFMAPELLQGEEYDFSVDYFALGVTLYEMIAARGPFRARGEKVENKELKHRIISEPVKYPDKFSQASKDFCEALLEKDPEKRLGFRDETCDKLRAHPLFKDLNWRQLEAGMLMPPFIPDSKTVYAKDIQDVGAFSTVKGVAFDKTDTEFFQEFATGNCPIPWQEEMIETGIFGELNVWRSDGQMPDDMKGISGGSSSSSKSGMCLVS
Chain of BMP-2-inducible protein kinase (Homo sapiens) (Q9NSY1 whole entry, looked up, canonical isoform): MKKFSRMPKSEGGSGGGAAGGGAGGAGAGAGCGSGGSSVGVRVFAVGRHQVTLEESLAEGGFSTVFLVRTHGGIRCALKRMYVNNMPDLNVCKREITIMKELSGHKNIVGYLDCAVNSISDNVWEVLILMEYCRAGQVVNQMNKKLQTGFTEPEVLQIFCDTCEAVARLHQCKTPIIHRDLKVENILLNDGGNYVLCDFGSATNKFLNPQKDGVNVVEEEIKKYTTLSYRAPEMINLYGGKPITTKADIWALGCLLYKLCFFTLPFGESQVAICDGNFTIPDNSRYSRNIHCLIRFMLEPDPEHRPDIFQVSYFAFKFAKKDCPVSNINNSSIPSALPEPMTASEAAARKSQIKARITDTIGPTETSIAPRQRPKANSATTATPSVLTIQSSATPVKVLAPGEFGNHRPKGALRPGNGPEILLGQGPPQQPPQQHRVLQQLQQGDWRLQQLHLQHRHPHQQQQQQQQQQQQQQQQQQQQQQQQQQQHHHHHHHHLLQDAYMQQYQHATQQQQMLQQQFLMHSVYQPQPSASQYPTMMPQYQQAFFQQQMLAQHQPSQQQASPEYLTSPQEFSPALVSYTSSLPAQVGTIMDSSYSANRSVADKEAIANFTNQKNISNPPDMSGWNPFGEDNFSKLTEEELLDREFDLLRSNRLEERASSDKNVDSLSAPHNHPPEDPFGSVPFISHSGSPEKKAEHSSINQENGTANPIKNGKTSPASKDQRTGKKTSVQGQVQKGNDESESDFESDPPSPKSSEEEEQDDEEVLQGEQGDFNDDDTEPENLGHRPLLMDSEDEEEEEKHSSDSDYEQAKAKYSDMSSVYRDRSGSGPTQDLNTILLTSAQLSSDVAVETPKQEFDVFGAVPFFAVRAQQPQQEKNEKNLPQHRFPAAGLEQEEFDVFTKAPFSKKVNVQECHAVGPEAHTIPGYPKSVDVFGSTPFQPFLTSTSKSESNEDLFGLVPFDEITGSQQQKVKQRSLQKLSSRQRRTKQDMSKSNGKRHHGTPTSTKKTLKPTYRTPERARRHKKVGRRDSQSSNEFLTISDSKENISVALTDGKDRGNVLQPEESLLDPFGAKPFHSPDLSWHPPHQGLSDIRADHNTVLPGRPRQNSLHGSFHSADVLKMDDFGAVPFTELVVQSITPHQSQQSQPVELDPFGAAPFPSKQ
Chain of Casein kinase I isoform alpha (Homo sapiens) (P48729 2-337 limits assumed): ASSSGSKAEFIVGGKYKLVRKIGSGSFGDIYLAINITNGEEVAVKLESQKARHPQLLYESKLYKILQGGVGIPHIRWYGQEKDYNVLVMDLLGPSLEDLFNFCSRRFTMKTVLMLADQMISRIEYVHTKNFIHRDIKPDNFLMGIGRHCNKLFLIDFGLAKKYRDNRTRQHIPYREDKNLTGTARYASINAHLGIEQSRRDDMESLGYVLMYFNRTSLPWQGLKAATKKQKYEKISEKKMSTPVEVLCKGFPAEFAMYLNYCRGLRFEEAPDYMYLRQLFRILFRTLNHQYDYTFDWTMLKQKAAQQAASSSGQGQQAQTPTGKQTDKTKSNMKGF

What is called inhibition is the drop in the measured response relative to a control, in per cent. Regarding `C[C@@H]1CN(c2cc(-c3nn(C)c4ccc(OC5(C)CC5)cc34)ncn2)C[C@H](C)O1` [MLi-2-NC], the residual activity in test [1] (setting [13]) is 91%; in test [2] (setting [13]) it was 100%; in test [3] (setting [13]), 100%; in test [4] (setting [13]) it was 100%; in test [5] (setting [13]) it was 100%; in test [6] (setting [13]) it was 75%. The residual activity is 100% in test [7] (setting [13]), 79% in test [8] (setting [13]), 47% in test [9] (setting [13]) and 82% in test [10] (setting [13]). For the same compound, the inhibition is -6.76% in test [11] and 2.87% in test [12].
For `C[C@@H]1CN(c2cc(-c3n[nH]c4ccc(OC5(C)CC5)cc34)ncn2)C[C@H](C)O1` [MLi-2], the residual activity in test [1] (setting [14]) is 95%; in test [2] (setting [14]), 100%; in test [3] (setting [14]), 73%; in test [4] (setting [14]), 86%; in test [5] (setting [14]), 83%; in [6] (setting [14]) it was 76%. The residual activity in [7] (setting [14]) was 78%; in test [8] (setting [14]), 65%; in [9] (setting [14]), 89%; in [10] (setting [14]) it was 86%. Further, the inhibition is -4.76% in test [11] and 1% in test [12].
